Source: ChEMBL document CHEMBL1127968, “Examination of peptidic ,-diamino-,-difluoroketones as inhibitors of human leukocyte elastase” (Bioorg Med Chem Lett, 1994)

The compounds below were run against T1, Neutrophil elastase (Homo sapiens, UniProt P08246) (assay: In vitro inhibitory activity against human leukocyte elastase was determined).
T1 sequence (P08246 whole entry): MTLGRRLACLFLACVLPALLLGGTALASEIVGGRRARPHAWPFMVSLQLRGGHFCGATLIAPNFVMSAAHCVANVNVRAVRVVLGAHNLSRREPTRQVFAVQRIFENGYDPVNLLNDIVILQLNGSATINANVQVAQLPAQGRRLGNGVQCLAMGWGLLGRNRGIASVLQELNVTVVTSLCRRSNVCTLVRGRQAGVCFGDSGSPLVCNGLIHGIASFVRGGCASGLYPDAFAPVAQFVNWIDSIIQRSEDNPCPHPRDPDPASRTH

First: CNC(=O)C(F)(F)C(=O)[C@@H](NC(=O)[C@@H]1CCCN1C(=O)[C@@H](NC(=O)c1ccc(OC)cc1)C(C)C)C(C)C
Second: COc1ccc(C(=O)N[C@H](C(=O)N2CCC[C@H]2C(=O)N[C@H](C(=O)C(F)(F)C(N)=O)C(C)C)C(C)C)cc1
The Ki of the first is 5.2-fold higher: 3.4 nM for the first, 0.65 nM for the second. The second binds more tightly here.

Compared with `COc1ccc(C(=O)N[C@H](C(=O)N2CCC[C@H]2C(=O)N[C@H](C(=O)C(F)(F)CNCc2ccccc2)C(C)C)C(C)C)cc1`, `CC(C)[C@H](NC(=O)Oc1ccccc1)C(=O)N1CCC[C@H]1C(=O)N[C@H](C(=O)C(F)(F)CNCc1ccccc1)C(C)C` is 12-fold higher in Ki: 0.35 nM for the first, 4.1 nM for the second.

First: COc1ccc(C(=O)N[C@H](C(=O)N2CCC[C@H]2C(=O)N[C@H](C(=O)C(F)(F)CNC(=O)OC(C)(C)C)C(C)C)C(C)C)cc1
Second: COc1ccc(C(=O)N[C@H](C(=O)N2CCC[C@H]2C(=O)N[C@H](C(=O)C(F)(F)CN)C(C)C)C(C)C)cc1
The Ki of the first is 4.4-fold lower: 3.4 nM for the first, 15 nM for the second. The first binds more tightly here.

Compared with `CC(C)[C@H](NC(=O)OCc1ccccc1)C(=O)N1CCC[C@H]1C(=O)N[C@H](C(=O)C(F)(F)CN)C(C)C`, `CC(C)[C@H](NC(=O)OCc1ccccc1)C(=O)N1CCC[C@H]1C(=O)N[C@H](C(=O)C(F)(F)C(N)=O)C(C)C` is 340-fold lower in Ki: 130 nM for the first, 0.38 nM for the second. The second binds more tightly here.

Compared with `CC(C)[C@H](NC(=O)OCc1ccccc1)C(=O)N1CCC[C@H]1C(=O)N[C@H](C(=O)C(F)(F)CNCc1ccccc1)C(C)C`, `CNC(=O)C(F)(F)C(=O)[C@@H](NC(=O)[C@@H]1CCCN1C(=O)[C@@H](NC(=O)OCc1ccccc1)C(C)C)C(C)C` is 1.9-fold higher in Ki: 1.6 nM for the first, 3 nM for the second. The first binds more tightly here.

Going from `CC(C)[C@H](NC(=O)Oc1ccccc1)C(=O)N1CCC[C@H]1C(=O)N[C@H](C(=O)C(F)(F)CN)C(C)C` to `CC(C)[C@H](NC(=O)Oc1ccccc1)C(=O)N1CCC[C@H]1C(=O)N[C@H](C(=O)C(F)(F)F)C(C)C`, the Ki rises from 0.81 nM to 2.3 nM (2.8-fold).

Compared with `CNC(=O)C(F)(F)C(=O)[C@@H](NC(=O)[C@@H]1CCCN1C(=O)[C@@H](NC(=O)Oc1ccccc1)C(C)C)C(C)C`, `CC(C)[C@H](NC(=O)Oc1ccccc1)C(=O)N1CCC[C@H]1C(=O)N[C@H](C(=O)C(F)(F)CNC(=O)OC(C)(C)C)C(C)C` is 2.2-fold lower in Ki: 0.85 nM for the first, 0.39 nM for the second. The second binds more tightly here.

`CC(C)[C@H](NC(=O)OCc1ccccc1)C(=O)N1CCC[C@H]1C(=O)N[C@H](C(=O)C(F)(F)CNC(=O)OC(C)(C)C)C(C)C` showed a Ki of 1.1 nM.

For `CC(C)CC(=O)NCC(F)(F)C(=O)C(CC1CCCCC1)NC(=O)[C@@H](NC(=O)[C@H](Cc1ccccc1)NC(=O)OC(C)(C)C)C(C)C` (stereo partly specified), the IC50 was 3.5 nM.
